From PMC3056768, “Conjugation to the Cell-Penetrating Peptide TAT Potentiates the Photodynamic Effect of Carboxytetramethylrhodamine” (PLoS ONE, 2011)
Entries after “also recorded” stand apart in the source; their conditions may differ.

Experiments:
[1] = system: COLO 316 cells; experiment: Photocytotoxicity of endocytosed peptide; assay type: cell-based, human; settings: COLO 316, 3 µM for 1 h, washed, 560 nm
Description: (§1) HeLa (human cervical adenocarcinoma), COS-7 (SV40 transformed African green monkey kidney fibroblast-like cell line) were obtained from ATCC. COLO 316 (human ovarian carcinoma) were obtained from Robert Burghardt (Department of Veterinary Integrative Biosciences, Texas A&M University). Cells were cultured in DMEM supplemented with 10% fetal bovine serum (FBS) and maintained at 37°C in a humidified environment with 5% CO2. Cells were plated in 8-well dishes so that the cells were 70% confluent after 24 h, washed 3 times with L-15 media, incubated with 3 to 10 µM peptides at 37°C for 1 h, washed 3 times with L-15, and imaged. Alternatively, cells were incubated in L-15 at 4°C to inhibit the endocytic uptake of peptides. In this case, cells were imaged with the peptide still present in solution and the low temperature was maintained for the entire duration of imaging. For photosensitization, cells were exposed to light (λex = 560±20 nm) for the indicated time points. Plasma membrane disruption was detected by addition of the cell-impermeable DNA stain SYTOX Blue (5 µM) during or after photosensitization.
Figure 2 The photolytic and photocytotoxic effects of TMR-TAT occur rapidly and in all irradiated cells. […] The cells were washed with fresh media and endocytosis of TMR-TAT was confirmed by fluorescence microscopy. […]

[2] = system: HeLa cells; experiment: Photo-induced endosomal release (fluorescence imaging); assay type: cell-based, human
Description: as §1
Ten to twenty images were acquired for each experiment.
The effect of light irradiation on cells that have endocytosed TMR-TAT was first investigated. HeLa cells were incubated in the presence of TMR-TAT (3 µM) for 1 hour at 37°C. After washing the cells, the sample was placed on a microscope and the cellular distribution of the peptide was assessed by fluorescence imaging. […] Within seconds, the content of many endosomes was released into the cell and the peptides were distributed throughout the cell. The peptide also accumulated at the nucleoli, a known effect of TAT [7]. […] The viability of non-irradiated cells was, in contrast, not affected by TMR-TAT (Fig. 2B); we found the cytotoxicity of the peptide to be negligible in the absence of light at concentrations up to 25 µM (supporting information Fig. S1).

[3] = system: COS-7 cells; experiment: Photosensitization of endocytosed peptide; assay type: cell-based, African green monkey; settings: COS-7, 3 µM for 1 h, washed, 560 nm
Description: as §1, with “In this case, cells were imaged with the peptide still present in solution and the low temperature was maintained for the entire duration of imaging. For photosensitization, cells were exposed to light (λex = 560±20 nm) for the indicated time points.” left out
TMR-TAT induces cell-death upon light irradiation in HeLa or COS-7 cells. […] Cells were observed using a 10× objective using bright field and fluorescence imaging (CFP filter to detect SYTOX® Blue). […] Cells were observed using a 100× objective using bright field and fluorescence imaging (RFP filter to detect TMR-TAT, pseudocolored red, and CFP filter to detect SYTOX® Blue, pseudo colored blue). […]

[4] = system: HeLa cells; experiment: Photosensitization of extracellular peptide at 4°C (endocytosis blocked); assay type: cell-based, human; settings: 3 µM, 4°C to block endocytosis, irradiated at 560 nm with compound still in the media
Description: as §1
It is therefore possible that the endosomal release observed in the experiments of Figure 1 might be necessary to cause cell death. To investigate whether this is the case, we examined if light-induced cell-death could be observed when the peptides were only localized at the plasma membrane of cells. For these experiments, HeLa cells were first incubated with the peptides (3 µM) at 4°C to block endocytosis. Cells were then irradiated with the peptides still present in the media (the peptide is not retained at the plasma membrane when cells are washed). […] Cells were then washed and observed by fluorescence imaging. […] On the other hand, the membrane damage and cell death obtained after TMR-TAT photosensitization were also observed when hematoporphyrin (HP) or hematoporphyrin derivative (HPD) were used (Fig. 4B). […]

CN(C)c1ccc2c(c1)Oc1cc(N(C)C)ccc1C21OC(=O)c2cc(C(=O)NCC(=O)N[C@@H](CCCNC(=N)N)C(=O)N[C@@H](CCCCN)C(=O)N[C@@H](CCCCN)C(=O)N[C@@H](CCCNC(=N)N)C(=O)N[C@@H](CCCNC(=N)N)C(=O)N[C@@H](CCC(N)=O)C(=O)N[C@@H](CCCNC(=N)N)C(=O)N[C@@H](CCCNC(=N)N)C(=O)N[C@@H](CCCNC(=N)N)C(=O)NCC(N)=O)ccc21 [TMR-TAT]
photo-induced activities (morphological changes, SYTOX Blue staining) [1]: only observable in the irradiated area; also recorded: could be reproduced
endosomal release on exposure to light of wavelengths not absorbed by TMR ([2]; e.g. 436 or 470 nm): No endosomal release
photo-induced endosomal release (photoendosomolytic activity) at 560 nm ([2]; incubation 1 h 37°C (3 µM; TMR-K9 10 µM), washed, irradiated at 560±20 nm): release of the fluorescent peptides from endosomes into the cytosol; also recorded: escape of TMR-TAT from endocytic organelles into the cytosol
photo-induced activities (endosomal release, blebbing, SYTOX Blue staining) [3]: could be reproduced; also recorded: membrane blebs are formed on the cell surface, and the nuclei of cells are stained by SYTOX® Blue
light-induced cell death with peptide only extracellular [4]: dramatic cytoplasmic extrusion, membrane blebbing, shrinkage and cell death
